From US20080153896A1, “Polymorphic Forms of an HMG-CoA Reductase Inhibitor and Uses Thereof” (priority 2006, published 2008)

Test: Stability (integrity) testing of amorphous and polymorphic form under storage conditions, RP-HPLC
Type: physicochemical
Set-up: key to Impurity RRT 0.738 / Impurity RRT 0.949 / Impurity RRT 1.050 / Impurity RRT 1.550 / Impurity RRT 0.136 / Impurity RRT 0.720 / Impurity RRT 0.706 / Impurity RRT 1.18 / Impurity RRT 1.826: % of total UV absorption (HPLC peak area)
Protocol: The integrity of the different forms of the (3R, 5R)-7-[2-(4-fluorophenyl)-5-isopropyl-3-phenyl-4-[(4-hydroxymethylphenylamino)carbonyl]-pyrrol-1-yl]-3,5-dihydroxy-heptanoic acid, hemi calcium salt, was tested under different atmospheric conditions to determine the stability of the amorphous and polymorphic form of the drug in various storage environments. Reversed Phase-HPLC (RP-HPLC) was used to separate (3R, 5R)-7-[2-(4-fluorophenyl)-5-isopropyl-3-phenyl-4-[(4-hydroxymethylphenylamino)carbonyl]-pyrrol-1-yl]-3,5-dihydroxy-heptanoic acid, hemi calcium salt, from smaller molecules representing breakdown products as well as oxidized drug. The relative amount of the drug was reported as a percent of total absorption by UV. The total peak area of all UV absorption impurities was used to define total impurity of the drug. Impurities are defined by their relative retention time (RRT) compared to native drug. Samples were injected onto a C18 column using standard temperature, gradient and run-time conditions.
The results of this integrity testing for the amorphous form of (3R, 5R)-7-[2-(4-fluorophenyl)-5-isopropyl-3-phenyl-4-[(4-hydroxymethylphenylamino)carbonyl]-pyrrol-1-yl]-3,5-dihydroxy-heptanoic acid, hemi calcium salt, is shown in Table 5.
Three separate batches of polymorphic Form I of (3R, 5R)-7-[2-(4-fluorophenyl)-5-isopropyl-3-phenyl-4-[(4-hydroxymethylphenylamino)carbonyl]-pyrrol-1-yl]-3,5-dihydroxy-heptanoic acid, hemi calcium salt, were prepared and tested under the same atmospheric conditions described for the amorphous form.

[1] = 25° C./60% RH 12M, hemi calcium salt
[2] = 30° C./65% RH 1M, hemi calcium salt
[3] = 30° C./65% RH 2M, hemi calcium salt
[4] = 30° C./65% RH 3M, hemi calcium salt
[5] = 30° C./65% RH 6M, hemi calcium salt
[6] = 30° C./65% RH 9M, hemi calcium salt
[7] = 30° C./65% RH 12M, hemi calcium salt
[8] = 40° C./75% RH 1M, hemi calcium salt
[9] = 40° C./75% RH 2M, hemi calcium salt
[10] = 40° C./75% RH 3M, hemi calcium salt
[11] = 40° C./75% RH 6M, hemi calcium salt
[12] = Initial, listed as Batch 1 of Polymorphic Form I, hemi calcium salt

Highest Impurity [1]: 0.412
Impurity RRT 0.935 [1]: 0.412
Impurity RRT 1.045 [1]: 0.396
Impurity RRT 1.640 [1]: 0.051
Total Impurity [1]: 1.318
Water [1]: 5.47 % W/W
Description (30° C./65% RH 1M): White
Impurity RRT 1.094 (30° C./65% RH 1M): 0.149
Impurity RRT 1.437 (30° C./65% RH 1M): 0.161
Impurity RRT 1.593 (30° C./65% RH 1M): 0.061
Impurity RRT 1.694 (30° C./65% RH 1M): 0.060
Water (30° C./65% RH 1M): 4.16 % W/W
Assay [2]: 98.25 % W/W
Highest Impurity [2]: 0.370
Impurity RRT 0.935 [2]: 0.370
Impurity RRT 1.045 [2]: 0.300
Impurity RRT 1.64 [2]: 0.047
Total Impurity [2]: 1.228
Description (30° C./65% RH 2M): White
Impurity RRT 1.094 (30° C./65% RH 2M): 0.16
Impurity RRT 1.180 (30° C./65% RH 2M): 0.044
Impurity RRT 1.437 (30° C./65% RH 2M): 0.163
Impurity RRT 1.593 (30° C./65% RH 2M): 0.080
Impurity RRT 1.694 (30° C./65% RH 2M): 0.062
Assay [3]: 98.23 % W/W
Highest Impurity [3]: 0.390
Impurity RRT 0.935 [3]: 0.390
Impurity RRT 1.045 [3]: 0.374
Impurity RRT 1.64 [3]: 0.044
Total Impurity [3]: 1.320
Water [3]: 3.85 % W/W
Description (30° C./65% RH 3M): White
Impurity RRT 1.094 (30° C./65% RH 3M): 0.167
Impurity RRT 1.437 (30° C./65% RH 3M): 0.168
Impurity RRT 1.593 (30° C./65% RH 3M): 0.081
Impurity RRT 1.694 (30° C./65% RH 3M): 0.066
Assay [4]: 98.15 % W/W
Highest Impurity [4]: 0.416
Impurity RRT 0.935 [4]: 0.416
Impurity RRT 1.045 [4]: 0.405
Impurity RRT 1.64 [4]: 0.048
Total Impurity [4]: 1.350
Water [4]: 4.73 % W/W
Description (30° C./65% RH 6M): White
Impurity RRT 0.136 (30° C./65% RH 6M): 0.049
Impurity RRT 1.094 (30° C./65% RH 6M): 0.140
Impurity RRT 1.437 (30° C./65% RH 6M): 0.150
Impurity RRT 1.593 (30° C./65% RH 6M): 0.077
Impurity RRT 1.694 (30° C./65% RH 6M): 0.044
Assay [5]: 98.08 % W/W
Highest Impurity [5]: 0.361
Impurity RRT 0.935 [5]: 0.355
Impurity RRT 1.045 [5]: 0.361
Impurity RRT 1.640 [5]: 0.042
Total Impurity [5]: 1.218
Water [5]: 5.62 % W/W
Description (30° C./65% RH 9M): White
Impurity RRT 0.136 (30° C./65% RH 9M): 0.056
Impurity RRT 1.094 (30° C./65% RH 9M): 0.134
Impurity RRT 1.437 (30° C./65% RH 9M): 0.147
Impurity RRT 1.593 (30° C./65% RH 9M): 0.080
Impurity RRT 1.694 (30° C./65% RH 9M): 0.051
Assay [6]: 98.15 % W/W
Highest Impurity [6]: 0.387
Impurity RRT 0.935 [6]: 0.387
Impurity RRT 1.045 [6]: 0.351
Impurity RRT 1.640 [6]: 0.033
Total Impurity [6]: 1.239
Water [6]: 5.55 % W/W
Impurity RRT 0.136 (30° C./65% RH 12M): 0.240
Impurity RRT 1.094 (30° C./65% RH 12M): 0.120
Impurity RRT 1.437 (30° C./65% RH 12M): 0.148
Impurity RRT 1.593 (30° C./65% RH 12M): 0.075
Impurity RRT 1.694 (30° C./65% RH 12M): 0.055
Assay [7]: 98.09 % W/W
Highest Impurity [7]: 0.375
Impurity RRT 0.935 [7]: 0.375
Impurity RRT 1.045 [7]: 0.372
Impurity RRT 1.640 [7]: 0.044
Total Impurity [7]: 1.492
Water [7]: 5.91 % W/W
Description (40° C./75% RH 1M): White
Impurity RRT 1.094 (40° C./75% RH 1M): 0.167
Impurity RRT 1.437 (40° C./75% RH 1M): 0.155
Impurity RRT 1.593 (40° C./75% RH 1M): 0.085
Impurity RRT 1.694 (40° C./75% RH 1M): 0.071
Assay [8]: 98.22 % W/W
Highest Impurity [8]: 0.405
Impurity RRT 0.935 [8]: 0.405
Impurity RRT 1.045 [8]: 0.39
Impurity RRT 1.64 [8]: 0.05
Total Impurity [8]: 1.323
Water [8]: 4.52 % W/W
Description (40° C./75% RH 2M): White
Impurity RRT 1.094 (40° C./75% RH 2M): 0.164
Impurity RRT 1.180 (40° C./75% RH 2M): 0.049
Impurity RRT 1.437 (40° C./75% RH 2M): 0.169
Impurity RRT 1.593 (40° C./75% RH 2M): 0.082
Impurity RRT 1.694 (40° C./75% RH 2M): 0.067
Assay [9]: 98.16 % W/W
Highest Impurity [9]: 0.408
Impurity RRT 0.935 [9]: 0.407
Impurity RRT 1.045 [9]: 0.408
Impurity RRT 1.64 [9]: 0.046
Total Impurity [9]: 1.39
Water [9]: 4.63 % W/W
Description (40° C./75% RH 3M): White
Impurity RRT 1.094 (40° C./75% RH 3M): 0.162
Impurity RRT 1.437 (40° C./75% RH 3M): 0.167
Impurity RRT 1.593 (40° C./75% RH 3M): 0.094
Impurity RRT 1.694 (40° C./75% RH 3M): 0.056
Assay [10]: 98.11 % W/W
Highest Impurity [10]: 0.403
Impurity RRT 0.935 [10]: 0.403
Impurity RRT 1.045 [10]: 0.396
Impurity RRT 1.64 [10]: 0.049
Total Impurity [10]: 1.330
Water [10]: 4.64 % W/W
Description (40° C./75% RH 6M): White
Impurity RRT 1.094 (40° C./75% RH 6M): 0.146
Impurity RRT 1.437 (40° C./75% RH 6M): 0.151
Impurity RRT 1.593 (40° C./75% RH 6M): 0.098
Impurity RRT 1.694 (40° C./75% RH 6M): 0.074
Assay [11]: 98.22 % W/W
Highest Impurity [11]: 0.391
Impurity RRT 0.935 [11]: 0.391
Impurity RRT 1.045 [11]: 0.351
Impurity RRT 1.640 [11]: 0.031
Total Impurity [11]: 1.242
Water [11]: 5.55 % W/W
Description (Initial): White
Impurity RRT 0.720 (Initial): 0.046
Impurity RRT 1.094 (Initial): 0.142
Impurity RRT 1.437 (Initial): 0.162
Impurity RRT 1.593 (Initial): 0.079
Impurity RRT 1.694 (Initial): 0.068
Assay [12]: 98.48 % W/W
Highest Impurity [12]: 0.411
Impurity RRT 1.045 [12]: 0.385
Impurity RRT 1.64 [12]: 0.046
Total Impurity [12]: 1.340
Water [12]: 4.55 % W/W
SMILES: CC(C)c1c(C(=O)Nc2ccc(CO)cc2)c(-c2ccccc2)c(-c2ccc(F)cc2)n1CC[C@@H](O)C[C@@H](O)CC(=O)[O-].CC(C)c1c(C(=O)Nc2ccc(CO)cc2)c(-c2ccccc2)c(-c2ccc(F)cc2)n1CC[C@@H](O)C[C@@H](O)CC(=O)[O-].[Ca+2] [PP00405, (3R, 5R)-7-[2-(4-fluorophenyl)-5-isopropyl-3-phenyl-4-[(4-hydroxymethylphenylamino)carbonyl]-pyrrol-1-yl]-3,5-dihydroxy-heptanoic acid, hemi calcium salt]
